Measured values taken from patent publication US11203574B2 (BioCryst Pharmaceuticals, Inc., priority 2014, dated 2021).

Molecular target: human plasma kallikrein (Homo sapiens (Human), UniProt P03952)
Experiment: Plasma kallikrein activity assay (chromogenic substrate S2302)
Type: biochemical
Conditions: 2 nM kallikrein, 80 μM S2302, 30° C., pH 7.8; Ki by Cheng-Prusoff equation; values given as ranges; read-out: Ki

Sequence of human plasma kallikrein (P03952 whole entry, looked up): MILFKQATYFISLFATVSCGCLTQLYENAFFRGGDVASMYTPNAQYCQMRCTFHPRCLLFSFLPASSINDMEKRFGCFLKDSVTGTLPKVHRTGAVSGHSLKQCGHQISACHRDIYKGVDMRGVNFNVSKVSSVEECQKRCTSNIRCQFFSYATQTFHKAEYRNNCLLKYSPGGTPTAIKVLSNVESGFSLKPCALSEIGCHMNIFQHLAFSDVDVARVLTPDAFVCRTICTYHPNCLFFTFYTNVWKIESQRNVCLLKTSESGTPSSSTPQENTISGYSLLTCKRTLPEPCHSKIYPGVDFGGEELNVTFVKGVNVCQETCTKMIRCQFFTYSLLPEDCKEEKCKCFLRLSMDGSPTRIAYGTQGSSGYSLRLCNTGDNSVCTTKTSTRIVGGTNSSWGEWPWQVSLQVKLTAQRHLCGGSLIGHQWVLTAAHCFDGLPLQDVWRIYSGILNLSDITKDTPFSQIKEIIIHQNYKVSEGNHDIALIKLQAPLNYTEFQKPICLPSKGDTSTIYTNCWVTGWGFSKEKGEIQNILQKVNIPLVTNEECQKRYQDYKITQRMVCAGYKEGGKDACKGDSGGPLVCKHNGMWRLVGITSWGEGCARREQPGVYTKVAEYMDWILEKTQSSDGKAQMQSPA
Sequence of human plasma kallikrein (P03952 whole entry partner, looked up): as the sequence (P03952 whole entry, looked up) above

| SMILES | Ki |
| --- | --- |
| CS(=O)(=O)c1ccc(C(NCC2CC2)c2cccc(NC(=O)c3cc(C(F)(F)F)nn3-c3cccc(CN)c3)c2)cc1 (stereo not drawn) [113f, 1-(3-(aminomethyl)phenyl)-N-(3-((cyclopropylmethylamino)(4-(methylsulfonyl)phenyl)methyl)phenyl)-3-(trifluoromethyl)-1H-pyrazole-5-carboxamide] | 0.1 to 50 nM |
| NCc1cccc(-n2nc(C(F)(F)F)cc2C(=O)Nc2cc(C(NCC3CC3)c3ccc(C(N)=O)cc3)ccc2F)c1 (stereo not drawn) [153b, 1-(3-(aminomethyl)phenyl)-N-(5-((4-carbamoylphenyl)(cyclopropylmethyl-amino)methyl)-2-fluorophenyl)-3-(trifluoromethyl)-1H-pyrazole-5-carboxamide] | 0.1 to 50 nM |
| N#Cc1cccc(C(N)(CCC2CC2)c2ccc(F)c(NC(=O)c3cc(C(F)(F)F)nn3-c3cccc(C(=N)N)c3)c2)c1 (single isomer, unassigned; (+)) [237a, (+)-N-(5-(1-amino-1-(3-cyanophenyl)-3-cyclopropylpropyl)-2-fluorophenyl)-1-(3-carbamimidoylphenyl)-3-(trifluoromethyl)-1H-pyrazole-5-carboxamide] | 0.1 to 50 nM |
| N#Cc1cccc(C(N)(CCC2CC2)c2ccc(F)c(NC(=O)c3cc(C(F)(F)F)nn3-c3ccc4ccnc(N)c4c3)c2)c1 (single isomer, unassigned; (+)) [256a, (+)-N-(5-(1-amino-1-(3-cyanophenyl)-3-cyclopropylpropyl)-2-fluorophenyl)-1-(1-aminoisoquinolin-7-yl)-3-(trifluoromethyl)-1H-pyrazole-5-carboxamide] | 0.1 to 50 nM |
| CC(C)NC(c1ccccc1)c1cccc(NC(=O)c2cc(C(F)(F)F)nn2-c2cccc(CN)c2)c1 (stereo not drawn) [144d, 1-(3-(Aminomethyl)phenyl)-N-(3-((isopropylamino)(phenyl)methyl)phenyl)-3-(trifluoromethyl)-1H-pyrazole-5-carboxamide] | 0.1 to 50 nM |
| NCc1cccc(-n2nc(C(F)(F)F)cc2C(=O)Nc2cccc(C(NCC3CC3)c3cccc4ccccc34)c2)c1 (stereo not drawn) [129f, 1-(3-(aminomethyl)phenyl)-N-(3-((cyclopropylmethylamino)(naphthalen-1-yl)methyl)phenyl)-3-(trifluoromethyl)-1H-pyrazole-5-carboxamide] | 0.1 to 50 nM |
| COc1ccc2cc(C(NCC3CC3)c3cccc(NC(=O)c4cc(C(F)(F)F)nn4-c4cccc(CN)c4)c3)ccc2c1 (stereo not drawn) [134f, 1-(3-(aminomethyl)phenyl)-N-(3-((cyclopropylmethylamino)(6-methoxynaphthalen-2-yl)methyl)phenyl)-3-(trifluoromethyl)-1H-pyrazole-5-carboxamide] | 0.1 to 50 nM |
| NCc1cccc(-n2nc(C(F)(F)F)cc2C(=O)Nc2cccc(C(NCC3CC3)c3ccc(F)cc3F)c2)c1 (stereo not drawn) [196f, 1-(3-(aminomethyl)phenyl)-N-(3-(((cyclopropylmethyl)amino)(2,4-difluorophenyl)methyl)phenyl)-3-(trifluoromethyl)-1H-pyrazole-5-carboxamide] | 0.1 to 50 nM |
| NCc1cccc(-n2nc(C(F)(F)F)cc2C(=O)Nc2cccc(C(NCC3CC3)c3ccc(S(N)(=O)=O)cc3)c2)c1 (stereo not drawn) [112g, 1-(3-(aminomethyl)phenyl)-N-(3-((cyclopropylmethylamino)(4-sulfamoylphenyl)methyl)phenyl)-3-(trifluoromethyl)-1H-pyrazole-5-carboxamide] | 0.1 to 50 nM |
| COc1cccc(C(NCC2CC2)c2cccc(NC(=O)c3cc(C(F)(F)F)nn3-c3cccc(CN)c3)c2)c1O (stereo not drawn) [151g, 1-(3-(Aminomethyl)phenyl)-N-(3-((cyclopropylmethylamino)(2-hydroxy-3-methoxyphenyl)methyl)phenyl)-3-(trifluoromethyl)-1H-pyrazole-5-carboxamide] | 0.1 to 50 nM |
| NCc1cccc(-n2nc(C(F)(F)F)cc2C(=O)Nc2cc(C(CCC3CC3)N3C(=O)CCC3=O)ccc2F)c1 (stereo not drawn) [260b, 1-(3-(aminomethyl)phenyl)-N-(5-(3-cyclopropyl-1-(2,5-dioxopyrrolidin-1-yl)propyl)-2-fluorophenyl)-3-(trifluoromethyl)-1H-pyrazole-5-carboxamide] | 0.1 to 50 nM |
| NCc1cccc(-n2nc(C(F)(F)F)cc2C(=O)Nc2cc(C(NCC3CC3)c3ccccn3)ccc2F)c1 (stereo not drawn) [100e, 1-(3-(aminomethyl)phenyl)-N-(5-((cyclopropylmethylamino)(pyridin-2-yl)methyl)-2-fluorophenyl)-3-(trifluoromethyl)-1H-pyrazole-5-carboxamide] | 0.1 to 50 nM |
| NCc1cccc(-n2nc(C(F)(F)F)cc2C(=O)Nc2cc(C(CCC3CC3)N3CCCCC3=O)ccc2F)c1 (single isomer, unassigned; (+)) [261k, (+)-1-(3-(aminomethyl)phenyl)-N-(5-(3-cyclopropyl-1-(2-oxopiperidin-1-yl)propyl)-2-fluorophenyl)-3-(trifluoromethyl)-1H-pyrazole-5-carboxamide] | 0.1 to 50 nM |
| NCc1cccc(-n2nc(C(F)(F)F)cc2C(=O)Nc2cccc(C(O)(CCC3CC3)c3ccccc3)c2)c1 (single isomer, unassigned; (+)) [46h, (+)-1-(3-(aminomethyl)phenyl)-N-(3-(3-cyclopropyl-1-hydroxy-1-phenylpropyl)phenyl)-3-(trifluoromethyl)-1H-pyrazole-5-carboxamide] | 0.1 to 50 nM |

Test system: hereditary angioedema (HAE)
Experiment: not given
Conditions: bradykinin B2 receptor antagonist; cited from earlier work

| SMILES | treatment of HAE |
| --- | --- |
| NC(N)=NCCC[C@@H](N)C(=O)N[C@@H](CCCN=C(N)N)C(=O)N1CCC[C@H]1C(=O)N1C[C@H](O)C[C@H]1C(=O)NCC(=O)N[C@@H](Cc1cccs1)C(=O)N[C@@H](CO)C(=O)N1Cc2ccccc2C[C@@H]1C(=O)N1[C@H](C(=O)N[C@@H](CCCN=C(N)N)C(=O)O)C[C@@H]2CCCC[C@@H]21 [Icatibant] | effective in treating HAE |
